# Assay results published in patent US20060240494A1, “Biocidal molecules, macromolecular targets and methods of production and use” (priority 2000, published 2006).
# Where “and” joins values, the source holds several entries; their conditions need not be identical. Identical values can stand only once. Like-named read-outs stand apart in the source and are kept apart here. Non-standard residues stand in square brackets, D forms with d. Residues, ends and D or L forms follow the SMILES beside them. No end group written: not given here. Ac6c = NC1(C(=O)O)CCCCC1; Dap = NC[C@H](N)C(=O)O
# Assays:
# M. luteus = assay: Growth inhibition assay, M. luteus; format: cell-based, Micrococcus luteus; details: Luria-Bertani rich nutrient medium
# Description: Growth inhibition assays are performed using the candidate antibacterial compounds and the Gram positive microorganisms Micrococcus luteus and Bacillus megaterium, and the Gram negative microorganisms, Escherichia coli D22, Agrobacterium tumefaciens, and Salmonella typhimurium. Antibacterial assays are performed in sterilized 96-well plates (Nunc F96 microtiter plates) with a final volume of 100 μl as described in Bulet (1996), cited above. Briefly, 90 μl of a suspension of a midlogarithmic phase bacterial culture at an initial 600 nm UV absorbance of 0.001 in Luria-Bertani rich nutrient medium is added to 10 μl of serially diluted candidate compounds in sterilized water. The final compound concentrations range between 0.15 and 80 μM, and more preferably between 0.3 μM and 40 μM. The plates are incubated at 30° C. for 24 hours with gentle shaking, and the growth inhibition is measured by recording the increase of the UV absorbance at 600 nm on an SLT Labinstruments 400 ATC microplate reader. The experiments are conducted over a 7-month period.
# The inhibitory concentrations (IC50) of each candidate compound is determined against each above-indicated microorganism.
# As one example, this in vitro antibacterial assay was performed on a broad spectrum divalent pyrrhocoricin analog, Chex-Pyrrhocoricin-2-19-Dap-[Chex-Pyrrhocoricin-2-19-Dap(Ac)], and the results illustrated in Table 4.
# [1] = within a four-hour period; Hoffmann et al, 1999; cited from earlier work
# [2] = system: β-galactosidase activities of live E. coli TG-1 cells; format: cell-based; details: for Inhibition of enzymatic activity after 1 hour (%) β-Galactosidase: peptide 32 μg/mL, live E. coli TG-1, three independent assays
# [3] = within a four-hour period; Hoffmann et al, 1999; cited from earlier work; remark: listed apart in the source
# [4] = system: alkaline phosphatase activities of live E. coli TG-1 cells; format: cell-based; details: peptide 32 μg/mL; live E. coli TG-1; four independent assays
# [5] = target: E. coli DnaK fragment aa588-615 (Escherichia coli, UniProt P0A6Y8); assay: Fluorescence polarization with synthetic DnaK fragment aa588-615; format: binding
# Chain of E. coli DnaK fragment aa588-615 (P0A6Y8 589-616 limits assumed): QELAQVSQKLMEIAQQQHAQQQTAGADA
# recombinant E. coli DnaK = target: T1, recombinant E. coli DnaK (Escherichia coli, UniProt P0A6Y8); assay: EnzChek ATPase assay, recombinant DnaK; format: biochemical; details: 50 molar equivalents of peptide; 22° C., 30 min; UV absorbance at 360 nm
# T1 construct: purchased StressGen, Victoria, Canada
# T1 sequence (P0A6Y8 whole entry): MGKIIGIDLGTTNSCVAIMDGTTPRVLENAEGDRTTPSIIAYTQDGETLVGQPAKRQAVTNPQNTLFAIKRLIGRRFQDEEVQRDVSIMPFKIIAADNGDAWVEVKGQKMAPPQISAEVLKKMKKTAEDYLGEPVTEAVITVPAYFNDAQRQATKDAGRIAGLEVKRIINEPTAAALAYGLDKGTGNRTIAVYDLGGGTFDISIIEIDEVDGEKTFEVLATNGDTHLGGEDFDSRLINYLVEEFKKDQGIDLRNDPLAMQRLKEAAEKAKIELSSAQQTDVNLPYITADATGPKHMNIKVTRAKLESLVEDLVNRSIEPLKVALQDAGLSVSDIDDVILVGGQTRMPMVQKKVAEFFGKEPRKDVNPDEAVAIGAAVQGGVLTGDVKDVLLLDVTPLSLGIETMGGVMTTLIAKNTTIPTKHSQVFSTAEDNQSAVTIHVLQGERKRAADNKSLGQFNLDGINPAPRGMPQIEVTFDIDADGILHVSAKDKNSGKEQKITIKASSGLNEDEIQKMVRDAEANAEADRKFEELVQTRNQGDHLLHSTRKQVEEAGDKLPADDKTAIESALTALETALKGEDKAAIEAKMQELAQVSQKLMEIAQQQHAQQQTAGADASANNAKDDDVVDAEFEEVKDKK
# Text: To determine whether the proline-rich antibacterial peptides that were predicted to bind to DnaK between the peptide binding pocket and the C-terminus would interfere with ATPase activity, a recently developed continuous spectrophotometric (colorimetric) ATPase activity assay [Rieger, C. E. et al, (1997) Anal. Biochem. 246: 86-95] was used. This assay uses using 2-amino-6-mercapto-7-methylpurine ribonucleoside (MESG)/purine nucleoside phosphorylase reaction to detect the released inorganic phosphate (EnzChek ATPase determination kit from Molecular Probes, Eugene, USA). Assays were performed in 500 μL tubes in duplicates in a total volume of 125 μL containing 20 mM tris(hydroxymethyl)amino-ethane (Tris)-HCl, pH 7.6, 1 mM MgCl2, […] (except in assaying the baseline), 5 μg of DnaK (recombinant DnaK protein from StressGen,Victoria, Canada) and 50 molar equivalents of the particular peptide, MESG and the purine nucleoside phosphorylase recommended by the manufacturer. After incubation at 22° C. for 30 min, 100 μL of the reaction mixture was transferred to a quartz cuvette and the ultraviolet (UV) absorbance at 360 nm was measured. The assay was run in a miniaturized form to increase the concentration and therefore the enzymatic activity of DnaK. In a larger, standard format the ATPase activity of DnaK without peptide addition was 6 pmol/μg/min, in line with the published data of 4 pmol/μg/min [Liberek, K. et al, (1991) Proc. Natl. Acad. Sci. USA 88: 2874-2878].
# E. coli DnaK aa583-615 = E. coli DnaK aa583-615 (Escherichia coli, UniProt P0A6Y8); assay: Circular dichroism of peptide - E. coli DnaK fragment mixtures; format: binding; details: DnaK spectrum subtracted from mixture
# Chain of E. coli DnaK aa583-615 (P0A6Y8 584-616 limits assumed): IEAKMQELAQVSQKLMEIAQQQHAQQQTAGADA
# Text: CD spectra are taken in water, and water-trifluoroethanol (TFE) mixtures to determine whether the characteristic unordered or turn→α-helix conformational transition, frequently observed for peptide fragments of helical domains of proteins, occurs at identical TFE concentrations. In pure water, the CD spectra of the E. coli and S. aureus DnaK fragments could be assigned as a type C spectrum, and reflect the dominance of type I (III) β-turns, or a mixture of type I and type II turns. […] This is an unmistakable indication of the appearance of helical structures, most likely 310-helices. The two DnaK fragments behaved identically, at least in spectral terms. While the spectral features of well-developed α-helices could already be seen at a TFE concentration as low as 10%, the intensity was increased with increasing TFE content. In 100% TFE a fully α-helical spectrum was recorded.
# To estimate the bound conformation of the antibacterial peptides, the spectra of drosocin or pyrrhocoricin alone, as well as those of the E. coli and S. aureus DnaK fragments were recorded, followed by the recording of the CD spectra of antibacterial peptide-DnaK fragment mixtures. […]
# [6] = system: E. coli strain (ATCC 25922); assay: Validated antibacterial assay conditions, E. coli ATCC 25922; format: cell-based
# DnaK = DnaK (Escherichia coli, UniProt P0A6Y8); format: binding, E. coli; set-up: purchased; host or cells: E. coli
# Chain of DnaK (P0A6Y8 whole entry): as the sequence (P0A6Y8 whole entry) above
# Hsp70 = Hsp70 (Homo sapiens, UniProt P0DMV8); assay: EnzChek ATPase assay, recombinant Hsp70; format: biochemical; details: human equivalent of DnaK
# Chain of Hsp70 (P0DMV8 whole entry, the tested form may be a part): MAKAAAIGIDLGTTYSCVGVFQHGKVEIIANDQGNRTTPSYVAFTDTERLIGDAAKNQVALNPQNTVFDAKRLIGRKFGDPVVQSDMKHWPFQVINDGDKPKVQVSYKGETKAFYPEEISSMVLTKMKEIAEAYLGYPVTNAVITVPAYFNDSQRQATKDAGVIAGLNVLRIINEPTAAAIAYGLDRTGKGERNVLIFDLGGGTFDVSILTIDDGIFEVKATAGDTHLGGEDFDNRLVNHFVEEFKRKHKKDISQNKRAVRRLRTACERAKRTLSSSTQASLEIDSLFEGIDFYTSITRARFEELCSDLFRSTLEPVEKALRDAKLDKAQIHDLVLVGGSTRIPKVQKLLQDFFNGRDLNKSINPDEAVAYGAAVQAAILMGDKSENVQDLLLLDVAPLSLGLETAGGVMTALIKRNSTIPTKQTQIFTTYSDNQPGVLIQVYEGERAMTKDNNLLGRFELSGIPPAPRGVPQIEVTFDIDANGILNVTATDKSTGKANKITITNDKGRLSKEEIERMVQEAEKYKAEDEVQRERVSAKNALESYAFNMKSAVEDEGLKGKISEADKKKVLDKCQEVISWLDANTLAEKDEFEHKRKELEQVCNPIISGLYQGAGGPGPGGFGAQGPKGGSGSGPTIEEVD
# [7] = target: E. coli DnaK fragment aa583-615 (D-E helix hinge) (Escherichia coli, UniProt P0A6Y8); assay: Fluorescence polarization with synthetic DnaK fragment aa583-615; format: binding
# Chain of E. coli DnaK fragment aa583-615 (D-E helix hinge) (P0A6Y8 584-616): as the sequence (P0A6Y8 584-616 limits assumed) above
# Description: The binding of the synthetic DnaK fragments to their fluorescein-labeled pyrrhocoricin counterparts was also assessed in solution, by fluorescence polarization [Lundblad, J. R. et al, (1996) Mol. Endocrinol. 10: 607-612]. For these experiments, the unlabeled peptides were serially diluted in PBS (pH 7.4) or 0.1 M Tris-HCl (pH 8.0) containing 0.1 M ethylene-diamine-tetraacetic acid (EDTA) in 50 μL final volume in 6×50 mm disposable glass borosilicate tubes. The fluoresceinated peptides were added to each tube in a 50 μL aliquot to a final concentration of 1 nM and tubes were incubated at 37° C. for 5 minutes. The extent of fluorescence anisotropy was measured on a Beacon 2000 fluorescence polarization instrument (PanVera, Madison, Wis.) and calculated as millipolarization values. The filters used were 485 nm excitation and 535 nm emission with 3 nm band width. Non-linear curve fitting was done by using a dose-response logistical transition [y=a0+a1/(1+x/a2)^a^3] and the Levenberg-Marquardt Algorithm within the SlideWrite software package. The provided Kd value (a2 coefficient) was calculated by the program.
# To quantitatively characterize the pyrrhocoricin—D-E helix interaction, the complete binding curves were measured for E. coli DnaK fragments aa583-615 and aa588-615, both of SEQ ID NO: 10.
# S. aureus = details: Otvos et al, 2000, Biochemistry; cited from earlier work
# GroEL = GroEL (Escherichia coli, UniProt P0A6F5); format: binding, E. coli; set-up: purchased; host or cells: E. coli; details: then 1 nM fluorescein-K-pyrrhocoricin, no peptide 70 ± 10
# Chain of GroEL (P0A6F5 2-548 limits assumed): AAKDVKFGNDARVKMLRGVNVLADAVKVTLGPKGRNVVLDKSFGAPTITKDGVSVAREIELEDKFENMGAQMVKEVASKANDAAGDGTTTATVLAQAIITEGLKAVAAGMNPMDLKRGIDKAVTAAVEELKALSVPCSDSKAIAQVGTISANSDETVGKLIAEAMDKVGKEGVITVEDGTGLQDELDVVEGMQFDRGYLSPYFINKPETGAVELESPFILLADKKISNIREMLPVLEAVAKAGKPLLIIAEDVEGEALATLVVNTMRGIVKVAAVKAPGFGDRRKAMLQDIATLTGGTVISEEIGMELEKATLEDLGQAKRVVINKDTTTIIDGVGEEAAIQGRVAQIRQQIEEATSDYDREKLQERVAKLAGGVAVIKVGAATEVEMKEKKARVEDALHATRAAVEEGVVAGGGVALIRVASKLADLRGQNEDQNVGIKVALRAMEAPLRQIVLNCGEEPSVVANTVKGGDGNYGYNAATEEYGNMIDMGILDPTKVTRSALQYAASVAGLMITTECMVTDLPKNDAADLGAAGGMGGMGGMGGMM
# E. coli D22 = details: Otvos et al, 2000, Protein Science; cited from earlier work
# E. coli infection = details: Otvos et al, 2000, cited from earlier work
# Ras = assay: Competition fluorescence polarization against labeled pyrrhocoricin, Ras; format: binding; details: 4 μM Ras reading 52±7
# [8] = target: S. aureus aa554-585 DnaK fragment (Staphylococcus aureus, UniProt P45554); assay: Circular dichroism of peptide - S. aureus DnaK fragment mixtures; format: binding; details: wavelength of band maxima
# Chain of S. aureus aa554-585 DnaK fragment (P45554 554-585 limits assumed): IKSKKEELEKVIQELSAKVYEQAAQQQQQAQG
# Description: To estimate the bound conformation of the antibacterial peptides, the spectra of drosocin or pyrrhocoricin alone, as well as those of the E. coli and S. aureus DnaK fragments were recorded, followed by the recording of the CD spectra of antibacterial peptide-DnaK fragment mixtures. Finally the original spectra of the DnaK peptides were subtracted from the spectra of the mixtures, and the residual spectra, representing the conformation of the bound peptides were compared to the spectra of the antibacterial peptides alone. This exercise is justifiable only if the conformation of the protein fragments remain unchanged upon interaction with drosocin or pyrrhocoricin. […] It is expected that the binding will not modify the helix structure of the rigid DnaK fragments, but can influence the conformation of the flexible antibacterial peptides.
# The results of this conformational analysis for pyrrhocoricin—E. coli DnaK interaction are as follows. The CD spectrum of the mixture of the two peptides resembled that of the DnaK fragment alone, except that the intensities were lower, due to the lower intensity of the CD spectrum of pyrrhocoricin.
# To ascertain that this conformational change upon binding was not a spectroscopical artifact, the procedure was repeated with pyrrhocoricin and the DnaK peptide derived from the non-responsive strain S. aureus.
# bacteria = assay: Bacterial killing by labeled and unlabeled pyrrhocoricin; format: cell-based
compound,measurement,setting,value
CC[C@H](C)[C@H](NC(=O)[C@@H]1CCCN1C(=O)[C@H](CCCNC(=N)N)NC(=O)[C@@H]1CCCN1C(=O)[C@@H]1CCCN1C(=O)[C@@H](NC(=O)[C@@H]1CCCN1C(=O)[C@H](CCCNC(=N)N)NC(=O)[C@@H]1CCCN1C(=O)[C@H](CC(C)C)NC(=O)[C@H](Cc1ccc(O)cc1)NC(=O)[C@H](CO)NC(=O)CNC(=O)[C@H](CCCCN)NC(=O)[C@H](CC(=O)O)NC(=O)C1(NC(=O)[C@H](CN)NC(=O)[C@H](CCCNC(=N)N)NC(=O)[C@H](CC(N)=O)NC(=O)[C@H](Cc2ccc(O)cc2)NC(=O)[C@@H](NC(=O)[C@@H]2CCCN2C(=O)[C@H](CCCNC(=N)N)NC(=O)[C@@H]2CCCN2C(=O)[C@@H]2CCCN2C(=O)[C@@H](NC(=O)[C@@H]2CCCN2C(=O)[C@H](CCCNC(=N)N)NC(=O)[C@@H]2CCCN2C(=O)[C@H](CC(C)C)NC(=O)[C@H](Cc2ccc(O)cc2)NC(=O)[C@H](CO)NC(=O)CNC(=O)[C@H](CCCCN)NC(=O)[C@H](CC(=O)O)NC(=O)C2(N)CCCCC2)[C@@H](C)O)[C@@H](C)CC)CCCCC1)[C@@H](C)O)C(=O)N[C@@H](Cc1ccc(O)cc1)C(=O)N[C@@H](CC(N)=O)C(=O)N[C@@H](CCCNC(=N)N)C(=O)N[C@@H](CNC(C)=O)C(=O)O [Chex-Pyrrhocoricin-2-19-Dap-[Chex-Pyrrhocoricin-2-19-Dap(Ac)]] (H-[Ac6c]DKGSYLPRPTPPRPIYNR[Dap][Ac6c]DKGSYLPRPTPPRPIYNR[Dap](Ac)-OH; C-terminus assumed),IC50,M. luteus,40 to 80 µM
GKPRPYSPRPTSHPRPIRV [Drosocin],degradation in diluted human serum,[1],completely degraded
same,effect on β-galactosidase activity after 6 hours,"[2]; 32 μg/mL, FIG. 2A",detrimental
same,Inhibition of enzymatic activity after 1 hour (%) β-Galactosidase,[2],98 ± 68%
same,degradation in diluted mouse serum,[3],completely degraded
same,Inhibition of enzymatic activity after 1 hour (%) Alkaline Phosphatase,[4],35 ± 27%
same,binding to aa588-615 fragment,[5],considerably weaker than pyrrhocoricin
same,effect on ATPase activity of recombinant DnaK,recombinant E. coli DnaK,without affecting
same,CD spectral change of the peptide upon mixing with DnaK fragment,E. coli DnaK aa583-615,did not appear to modify the conformation
VDKGSYLPRPTPPRPIYNRN [pyrrhocoricin],Inhibition of enzymatic activity after 1 hour (%) β-Galactosidase,[2],153 ± 57%
same,Inhibition of enzymatic activity after 1 hour (%) Alkaline Phosphatase,[4],32 ± 16%
same,killing of E. coli ATCC 25922,[6],failed to kill
same,Millipolarization after preincubation with,DnaK,110 and 84
same,effect on ATPase activity of recombinant Hsp70,Hsp70,did not influence
same,Kd,[7],50.8 µM
same,activity against S. aureus in vitro,S. aureus,inactive
same,Millipolarization after preincubation with,"GroEL; 4 μM GroEL preincubated with 4 μM unlabeled peptide, corrected with Ras readings",62
same,Millipolarization after preincubation with,GroEL; 4 μM GroEL preincubated with 8 μM unlabeled peptide,62
same,killing of E. coli D22,E. coli D22,nanomolar concentrations
same,toxicity in vivo,"E. coli infection; higher dose for pyrrhocoricin, compromised animals",toxic to compromised animals
same,protection of mice against E. coli infection,E. coli infection; low doses for pyrrhocoricin,protected mice
same,decrease of the Ras readings,Ras; preincubation with 4 μM peptide,16 millipolarization units
same,decrease of the Ras readings,Ras; preincubation with 8 μM peptide,27 millipolarization units
same,CD spectral change of the peptide upon mixing with DnaK fragment,[8],remained unchanged
same,effect on ATPase activity of recombinant DnaK,recombinant E. coli DnaK,less than half of the original value
same,CD spectral change of the peptide upon mixing with DnaK fragment,E. coli DnaK aa583-615,redshift of both pyrrhocoricin bands
same,concentration range killing bacteria,bacteria,mid-nanomolar concentration range
